Laboratory results reported in the NIST ThermoML archive (doi:10.1016/j.jct.2014.01.016).

Conditions: 298.15 K; Liquid; Gas chromatography

Row | vapor or sublimation pressure [kPa] | Structure (SMILES)
1 | 0.00027 | CCCCCC1CCCC(=O)O1 (stereo unspecified) [2H-pyran-2-one, tetrahydro-6-pentyl-]
2 | 0.00033 | CCCCCCC1CCC(=O)O1 (stereo unspecified) [γ-decalactone]
3 | 4e-05 | CCCCCCCCC1CCC(=O)O1 (stereo unspecified) [γ-dodecanolactone]
4 | 0.00076 | CCCCC1CCCC(=O)O1 (stereo unspecified) [δ-nonanolactone]
5 | 9e-05 | CCCCCCC1CCCC(=O)O1 (stereo unspecified) [δ-undecanolactone]

More lines, now with the values behind:

Row | Structure (SMILES) | vapor or sublimation pressure [kPa]
6 | CCC1CCC(=O)O1 (stereo unspecified) [2(3H)-furanone, 5-ethyldihydro-] | 0.0225
7 | CCCCCC1CCC(=O)O1 (stereo unspecified) [2(3H)-furanone, dihydro-5-pentyl-] | 0.00097
8 | CCCC1CCCC(=O)O1 (stereo unspecified) [2H-pyran-2-one, tetrahydro-6-propyl-] | 0.00221
9 | CCCCC1CCC(=O)O1 (stereo unspecified) [γ-octanolactone] | 0.00278
10 | CCCCCCCC1CCC(=O)O1 (stereo unspecified) [γ-undecanolactone] | 0.00012
11 | CCCCCCCC1CCCC(=O)O1 (stereo unspecified) [δ-dodecanolactone] | 3e-05
